Paper PMC10184511 (Neuro-Oncology Advances, 2023)

Assays:
[1] = description in words; cited from earlier work
[2] = metastatic melanoma patients, 200 mg/m^2 TMZ; cited from earlier work
BBB = conditions: previous report; cited from earlier work
[3] = tested on: p53-p21 axis in Mel-7 cells; test: Western blotting of p53-p21 axis, cell-cycle proteins and Cyt c, Mel-7; format: cell-based, human; conditions: 24 hours
[4] = In vitro 3D BBB permeability assay; format: in vitro ADME; conditions: human, pH 7

- Papp A→B at 30 min, 100 μM [4]: 2.67 ×10⁻⁶ cm/s
Structure (SMILES): Cn1nnc2c(C(N)=O)ncn2c1=O [TMZ, temozolomide]
- lipophilicity [1]: lipophilic
- Cmax [2]: ~ 20 μg/mL
- BBB permeability (BBB): 2.7e-06 cm/s
- Cyt c release into the cytoplasm ([3]; single agent, cytosolic fraction): increased
- p53 levels ([3]; single-agent treatment, whole-cell lysate): substantially increased
